Test results published in US10213433B2 (AbbVie Inc., priority 2010, dated 2019).

Each compound was assayed against Bcl-2 protein (Homo sapiens (Human), UniProt P10415) (assay: Bcl-2 binding TR-FRET (Time-Resolved Fluorescence-Resonance-Energy-Transfer) assay). Conditions: inhibition constant for binding to Bcl-2 protein.
From the text: The smaller the Ki value, the greater is the binding affinity.

Chain of Bcl-2 protein (P10415 whole entry): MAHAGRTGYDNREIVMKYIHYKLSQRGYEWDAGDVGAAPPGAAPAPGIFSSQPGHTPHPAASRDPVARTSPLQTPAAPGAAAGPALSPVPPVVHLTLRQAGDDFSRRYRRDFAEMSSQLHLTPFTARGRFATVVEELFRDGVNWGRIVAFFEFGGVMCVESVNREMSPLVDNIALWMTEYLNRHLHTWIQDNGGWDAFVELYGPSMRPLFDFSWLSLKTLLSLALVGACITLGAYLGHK

| SMILES | Ki [nM] |
| --- | --- |
| CN1CCC(COc2ncc(S(=O)(=O)NC(=O)c3ccc(N4CCN(CC5=C(c6ccc(Cl)cc6)CC(C)(C)CC5)CC4)cc3Oc3cnc4[nH]ccc4c3)cc2Br)CC1 [Compound 47, N-({5-bromo-6-[(1-methylpiperidin-4-yl)methoxy]pyridin-3-yl}sulfonyl)-4-(4-{[2-(4-chlorophenyl)-4,4-dimethylcyclohex-1-en-1-yl]methyl}piperazin-1-yl)-2-(1H-pyrrolo[2,3-b]pyridin-5-yloxy)benzamide] | < 0.01 |
| CN1CCC(COc2ccc(S(=O)(=O)NC(=O)c3ccc(N4CCN(CC5=C(c6ccc(Cl)cc6)CC(C)(C)CC5)CC4)cc3Oc3cnc4[nH]ccc4c3)cc2[N+](=O)[O-])CC1 [Compound 48, 4-(4-{[2-(4-chlorophenyl)-4,4-dimethylcyclohex-1-en-1-yl]methyl}piperazin-1-yl)-N-({4-[(1-methylpiperidin-4-yl)methoxy]-3-nitrophenyl}sulfonyl)-2-(1H-pyrrolo[2,3-b]pyridin-5-yloxy)benzamide] | < 0.01 |
| CC1(C)CCC(CN2CCN(c3ccc(C(=O)NS(=O)(=O)c4ccc(OCC5CCOC(C)(C)C5)c([N+](=O)[O-])c4)c(Oc4cnc5[nH]ccc5c4)c3)CC2)=C(c2ccc(Cl)cc2)C1 (centres unmarked) [Compound 51, 4-(4-{[2-(4-chlorophenyl)-4,4-dimethylcyclohex-1-en-1-yl]methyl}piperazin-1-yl)-N-({4-[(2,2-dimethyltetrahydro-2H-pyran-4-yl)methoxy]-3-nitrophenyl}sulfonyl)-2-(1H-pyrrolo[2,3-b]pyridin-5-yloxy)benzamide] | < 0.01 |
| CC(=O)N1CCC(Nc2ccc(S(=O)(=O)NC(=O)c3ccc(N4CCN(CC5=C(c6ccc(Cl)cc6)CC(C)(C)CC5)CC4)cc3Oc3cnc4[nH]ccc4c3)cc2[N+](=O)[O-])CC1 [Compound 53, N-({4-[(1-acetylpiperidin-4-yl)amino]-3-nitrophenyl}sulfonyl)-4-(4-{[2-(4-chlorophenyl)-4,4-dimethylcyclohex-1-en-1-yl]methyl}piperazin-1-yl)-2-(1H-pyrrolo[2,3-b]pyridin-5-yloxy)benzamide] | < 0.01 |
| CC1(C)CCC(CN2CCN(c3ccc(C(=O)NS(=O)(=O)c4ccc(NCCCN5CCOCC5)c([N+](=O)[O-])c4)c(Oc4cnc5[nH]ccc5c4)c3)CC2)=C(c2ccc(Cl)cc2)C1 [Compound 55, 4-(4-{[2-(4-chlorophenyl)-4,4-dimethylcyclohex-1-en-1-yl]methyl}piperazin-1-yl)-N-({4-[(3-morpholin-4-ylpropyl)amino]-3-nitrophenyl}sulfonyl)-2-(1H-pyrrolo[2,3-b]pyridin-5-yloxy)benzamide] | < 0.01 |
| COCCOCCS(=O)(=O)c1ccc(S(=O)(=O)NC(=O)c2ccc(N3CCN(CC4=C(c5ccc(Cl)cc5)CC(C)(C)CC4)CC3)cc2Oc2cnc3[nH]ccc3c2)cc1Cl [Compound 58, N-[(3-chloro-4-{[2-(2-methoxyethoxyl)ethyl]sulfonyl}phenyl)sulfonyl]-4-(4-{[2-(4-chlorophenyl)-4,4-dimethylcyclohex-1-en-1-yl]methyl}piperazin-1-yl)-2-(1H-pyrrolo[2,3-b]pyridin-5-yloxy)benzamide] | < 0.01 |
| CC1(C)CCC(CN2CCN(c3ccc(C(=O)NS(=O)(=O)c4ccc(NCCC#N)c([N+](=O)[O-])c4)c(Oc4cnc5[nH]ccc5c4)c3)CC2)=C(c2ccc(Cl)cc2)C1 [Compound 62, 4-(4-{[2-(4-chlorophenyl)-4,4-dimethylcyclohex-1-en-1-yl]methyl}piperazin-1-yl)-N-({4-[(2-cyanoethyl)amino]-3-nitrophenyl}sulfonyl)-2-(1H-pyrrolo[2,3-b]pyridin-5-yloxy)benzamide] | < 0.01 |
| CN1CCC(CNc2ccc(S(=O)(=O)NC(=O)c3ccc(N4CCN(CC5=C(c6ccc(Cl)cc6)CC(C)(C)CC5)CC4)cc3Oc3cnc4[nH]ccc4c3)cc2[N+](=O)[O-])CC1 [Compound 65, 4-(4-{[2-(4-chlorophenyl)-4,4-dimethylcyclohex-1-en-1-yl]methyl}piperazin-1-yl)-N-[(4-{[(1-methylpiperidin-4-yl)methyl]amino}-3-nitrophenyl)sulfonyl]-2-(1H-pyrrolo[2,3-b]pyridin-5-yloxy)benzamide] | < 0.01 |
